Laboratory results taken from US10399931B2, “Octahydroanthracene compound, preparation method and application thereof” (SHANDONG XINHUA PHARMACEUTICAL CO., LTD., priority 2016, dated 2019).

Legend:
[1] = tested on: Human leukemia HL60 cells; assay: MTT assay, proliferation of human leukemia HL60 cells; format: cell-based; details: Homo sapiens, HL-60, 48 h, 10 μM, 48 h, Mean ± SE; read-out: Inhibitive rate (%) against HL60 cells
Protocol: (§1) The survival rate of cells was determined by MTT assay, which is based on the metabolic reduction of 3-(4,5-dimethyl-2thiahiazoyl)-3,5-di-phenyl-tetrazolium bromide (MTT) by viable cells. MTT is a yellow compound, a dye that accepts hydrogen ion, which can act on the respiratory chain in the mitochondria of viable cells. Under the action of succinate dehydrogenase and cytochrome C, the tetrazolium ring was cleaved to form blue Formazan crystals, and the amount of Formazan crystals generated was only proportional to the number of the viable cells. The enzymes disappeared in dead cells, so Formazan crystals could not be dissolved in MTT solution containing 20% sodium dodecyl sulfate (pH 4.7).
(§2) The cells in the logarithmic growth phase were selected and adjusted to an appropriate cell density, seeded in a 96-well plate, 100 μl/well, and cultured in a 37° C., 5% CO2 incubator. The cells were allowed to adhere overnight, then the culture medium was replaced and the drug was added to cultivate for 48 h. A blank control group, a drug administration group and a positive control group were set, with four repeats in each group.
(§3) After 48 h of drug treatment, the cells were incubated with 0.25 mg/ml MTT at 37° C. for 3-4 h, and 100 μl of dimethyl sulfoxide (DMSO) was added to each well after aspirating the culture solution.

[2] = tested on: Human cutaneous T-cell lymphoma Hut102 cells; assay: MTT assay, proliferation of human cutaneous T-cell lymphoma Hut102 cells; format: cell-based; details: HuT-102, 10 μM, Mean ± SE, read-out: Inhibitive rate (%) against Hut102 cells
Protocol: as §1, §2, §3

APP/PS1 transgenic mice [3] = assay: Morris water maze test (oriented navigation and probe test); format: in vivo; details: for Number of times traversing the safe platform vs model group / Percentage of the swimming distance in the target quadrant vs model group / Swimming time in the target quadrant vs model group: probe test
Protocol: The drugs were administered three days after the adaptive feeding. Peanut oil was used as the solvent. The drug was intragastric administered once a day for 15 days. On the 6th to 9th day after the administration, the new object identification test was performed. On the 10th day, the Y-maze test was performed. On the 11th to 15th day, the Morris water maze test was performed to determine the improvement of learning and memory. The administration of the drugs was continued during the behavioral experiment until the animals were sacrificed (16th day).
The experimental device includes a black circular pool with a diameter of 100 cm and a height of 40 cm, and a white platform (safe platform) having a diameter of about 10 cm. The location of the safe platform could be moved. Morris Water Maze Video Detection and Analysis System was provided by the Institute of Materia Medica, China Academy of Medical Sciences. One day before the experiment, water was injected into the black circular pool (water temperature 22±1° C.), and white pigment was added to mix uniformly. The water surface was usually about 1 cm higher than the top of the safe platform. The pool was divided into four quadrants I, II, III and IV, and the safe platform was usually placed in the middle of the quadrant IV. The experiment was divided into two parts: (1) Oriented navigation: the animal grouping was input into a computer software in advance. The position of the safe platform was kept unchanged during the experiment. During the test, the experimental animal facing the pool wall was placed in the water from different inlets, and the computer simultaneously collected data and recorded the time to find the safe platform (escape latency). Data collection automatically stopped when the animal stayed on the safe platform for 10 s. The data acquisition time of the mouse was 60 s. If the animal could not find the safe platform within the specified time, the escape latency was recorded as 60 s. At the same time, the operator induced the animal to reach the safe platform and stay for 10 s. The animal was trained twice a day for 4 consecutive days. (2) Probe test: after the oriented navigation test is completed, the safe platform is removed and the animal was placed in the pool free to explore for 60 s. The camera system automatically recorded the time and distance of the experimental animal swimming in the quadrant of the safe platform within the specified time and the number of times passing through the location of the safe platform.

APP/PS1 transgenic mice [4] = assay: Social interaction experiment; format: in vivo; details: 200 mg/kg
Protocol: The social interaction device was composed of a square box (length×width×height: 50 cm×50 cm×15 cm). The behavioral laboratory used diffuse and dim light (25 W) and tried to avoid environmental stress caused by shadows in the experimental area. Before the social interaction experiment, in order to eliminate the influence of unfamiliar environment, each mouse was placed in the experimental device alone to adapt to the environment, 10 min each day for two consecutive days. At the beginning of the test on day 3, the mouse was randomly paired with another strange partner. Two groups of experimental animals were placed in the experimental device at the same time, and the time spent by the mice in the active social interaction behavior was recorded. The test time was 10 min, including sniffing, combing, and scratching or chasing each other. However, passive contact activities (overwhelmed or being ridden by the other mouse, etc.) are not recorded in the social interaction behavior. After each test, 1% bromo geramine was used to disinfect the social interaction device.

APP/PS1 transgenic mice [5] = assay: Nesting experiment; format: in vivo
Excerpt: Each mouse was separately housed in a cage. On the first day of the test, two pieces of cotton (5 cm×5 cm) were placed in the cage. […]

APP/PS1 mice = assay: Patch clamp experiment, LTP (synaptic function); format: in vivo
[6] = tested on: APP/PS1 double transgenic AD model mice; assay: Safety observations during repeated administration in the behavioral experiment; format: in vivo; details: for Organ index of heart, liver, spleen and kidney: repeated administration (3 consecutive months)
Protocol: OAB-14 at a doge of 50, 100 and 200 mg/kg were respectively given to APP/PS1 double transgenic AD model mice aged 8 months by continuous intragastric administration for 14 days or 3 months (to 11 months old, equivalent to the middle- and late-aged AD), using donepezil as a positive control.

CC1(C)CCC(C)(C)c2c1cc1c(c2NC(=O)c2ccc(NC(=O)NCCN)cc2)C(C)(C)CCC1(C)C [OAB-14, 1-(2-amino) ethyl-3-{4-[(1,1,4,4,5,5,8,8-octamethyl-1,2,3,4,5,6,7,8-octahydro-9-anthryl)carbamoyl]phenyl} urea]
inhibition at 10 µM [1]: 24.3 ± 3.18%
inhibition at 10 µM [2]: 41.2 ± 1.08%
Total swimming distance vs model group (APP/PS1 transgenic mice [3]; 100 mg/kg, fourth day of training): significantly reduced
Escape latency vs model group (APP/PS1 transgenic mice [3]; 100 mg/kg, third and fourth days of training): significantly reduced
Escape latency vs model group (APP/PS1 transgenic mice [3]; 200 mg/kg, from the second day of training): significant decrease
Total swimming distance vs model group (APP/PS1 transgenic mice [3]; 200 mg/kg, from the third day of training): significant decrease
Number of times traversing the safe platform vs model group (APP/PS1 transgenic mice [3]; 100 mg/kg): significantly increased
Percentage of the swimming distance in the target quadrant vs model group (APP/PS1 transgenic mice [3]; 100 mg/kg): significantly increased
Swimming time in the target quadrant vs model group (APP/PS1 transgenic mice [3]; 100 mg/kg): significantly increased
Number of times traversing the safe platform vs model group (APP/PS1 transgenic mice [3]; 200 mg/kg): significantly increased
Percentage of the swimming distance in the target quadrant vs model group (APP/PS1 transgenic mice [3]; 200 mg/kg): significantly increased
Swimming time in the target quadrant vs model group (APP/PS1 transgenic mice [3]; 200 mg/kg): significantly increased
Spatial learning and memory disorders of the APP/PS1 mice (APP/PS1 transgenic mice [3]; water maze oriented navigation, overall): significantly improved
Active contact time vs model group (APP/PS1 transgenic mice [4]): significantly increased
Nesting ability vs model group (APP/PS1 transgenic mice [5]; 100 mg/kg, at 12 h): significantly increased
Nesting ability vs model group (APP/PS1 transgenic mice [5]; 200 mg/kg, at 6 h): significantly increased
Nesting ability vs model group (APP/PS1 transgenic mice [5]; 200 mg/kg, at 12 h): significantly increased
Nesting ability vs model group (APP/PS1 transgenic mice [5]; 200 mg/kg, at 24 h): significantly increased
LTP (APP/PS1 mice; 100 mg/kg group): significantly enhanced
LTP (APP/PS1 mice; 200 mg/kg group): significantly enhanced
Changes in the main organ tissue sections compared with the blank group ([6]; 14 days or 3 months): no changes were observed
General condition of the mice ([6]; low, medium and high dose, 3 consecutive months): in good condition
Organ index of heart, liver, spleen and kidney ([6]; low, medium and high dose): not abnormal
Organ index of heart, liver, spleen and kidney ([6]; low, medium and high dose, listed as OAR-14): not seen to be abnormal
